The values below come from patent US20240116985A1, “STAPLED PEPTIDES AND METHODS THEREOF” (priority 2020, published 2024).

pIC50: −log10 of the molar value. Bounds are passed on as bounds.

Experiment [1] deals with T1, full-length beta-Catenin (Uniprot ID P35222) (Homo sapiens, UniProt P35222).
T1 construct: 10 nM full-length beta-Catenin (Uniprot ID P35222)
T1 sequence (P35222 1-781): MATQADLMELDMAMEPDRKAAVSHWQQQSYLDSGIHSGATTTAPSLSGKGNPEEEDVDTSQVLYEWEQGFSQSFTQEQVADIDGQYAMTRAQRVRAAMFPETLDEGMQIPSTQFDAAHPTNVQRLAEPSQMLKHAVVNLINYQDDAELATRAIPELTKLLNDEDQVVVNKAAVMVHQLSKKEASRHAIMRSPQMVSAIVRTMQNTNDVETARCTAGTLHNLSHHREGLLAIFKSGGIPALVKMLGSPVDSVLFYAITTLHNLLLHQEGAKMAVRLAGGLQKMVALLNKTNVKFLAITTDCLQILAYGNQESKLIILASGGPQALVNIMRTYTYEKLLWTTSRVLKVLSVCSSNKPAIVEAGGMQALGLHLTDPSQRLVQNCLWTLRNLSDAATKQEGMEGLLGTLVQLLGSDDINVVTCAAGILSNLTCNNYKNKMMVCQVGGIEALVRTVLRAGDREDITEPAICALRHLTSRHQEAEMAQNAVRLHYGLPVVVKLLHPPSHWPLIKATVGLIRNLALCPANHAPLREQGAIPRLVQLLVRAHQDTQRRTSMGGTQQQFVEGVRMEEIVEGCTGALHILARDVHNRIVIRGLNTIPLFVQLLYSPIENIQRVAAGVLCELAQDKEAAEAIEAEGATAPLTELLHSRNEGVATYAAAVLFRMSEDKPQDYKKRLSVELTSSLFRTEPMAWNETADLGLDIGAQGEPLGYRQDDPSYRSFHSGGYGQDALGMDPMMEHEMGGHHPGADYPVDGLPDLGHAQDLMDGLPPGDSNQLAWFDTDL
Kind of experiment: Fluorescence polarization IC50 (beta-catenin / 5FAM-TCF4 10-53 competition). It counts as binding. The settings on record: fluorescence polarization; read-out: beta-Catenin FP IC50.

Experiment [2] concerns the target T2, beta-catenin/TCF4 engagement (Homo sapiens, UniProt P35222).
T2 construct: expressed in transfected cells; host or cells: HEK293
T2 sequence (P35222 1-781): T1 sequence (P35222 1-781)
Kind of experiment: Nano-BRET target engagement assay (B-cat-Halo & TCF4-Luc in HEK293 cells). The conditions noted are these: absolute IC50; read-out: NanoBRET Abs IC50. The experiment is classed as cell-based.

Consider `CC(=O)N1CCC[C@]12CC=CCCCC1(CCCC=CCCCCCC[C@@](C)(C(=O)N[C@@H](Cc3ccccc3)C(=O)N[C@@H](Cc3csc4ccccc34)C(=O)N[C@@H](CCC(N)=O)C(N)=O)NC(=O)[C@H](CCO)NC(=O)[C@H](Cc3ccccc3)NC(=O)[C@H](C)NC(=O)[C@H](C)NC(=O)[C@H](CCC(=O)O)NC(=O)[C@H](CC(=O)O)NC1=O)NC(=O)[C@H](CCC(C)C)NC(=O)[C@H](CC(=O)O)NC2=O` (stereo partly drawn) [I-1538, Ac-PL3-Asp-Hleu-B5-Asp-Glu-Ala-Ala-Phe-Hse-S8-Phe-BztA-Gln-NH2], for which the pIC50 in experiment [1] is 7.68; in experiment [2], 4.93.

As for `CC(=O)N1CCC[C@]12CC=CCCCC1(CCCC=CCCCCCC[C@@](C)(C(=O)N[C@@H](Cc3ccccc3)C(=O)N[C@@H](Cc3csc4ccccc34)C(=O)N[C@@H](CCC(N)=O)C(N)=O)NC(=O)[C@H](CCC(N)=O)NC(=O)[C@H](Cc3ccccc3)NC(=O)[C@H](C)NC(=O)[C@H](C)NC(=O)[C@H](CCC(=O)O)NC(=O)[C@H](CC(=O)O)NC1=O)NC(=O)[C@H](CCC(N)=O)NC(=O)[C@H](CC(=O)O)NC2=O` (stereo partly drawn) [I-1539, Ac-PL3-Asp-Gln-B5-Asp-Glu-Ala-Ala-Phe-Gln-S8-Phe-BztA-Gln-NH2], the pIC50 in experiment [1] is 7.44; in experiment [2], less than 4.70.

Turning to `CC(=O)N1CCC[C@]12CC=CCCCC1(CCCC=CCCCCCC[C@@](C)(C(=O)N[C@@H](Cc3ccccc3)C(=O)N[C@@H](Cc3csc4ccccc34)C(=O)N[C@@H](CCC(N)=O)C(N)=O)NC(=O)[C@H](CCC(N)=O)NC(=O)[C@H](Cc3ccccc3)NC(=O)[C@H](C)NC(=O)[C@H](C)NC(=O)[C@H](CCC(=O)O)NC(=O)[C@H](CC(=O)O)NC1=O)NC(=O)[C@H](CCO)NC(=O)[C@H](CC(=O)O)NC2=O` (stereo partly drawn) [I-1544, Ac-PL3-Asp-Hse-B5-Asp-Glu-Ala-Ala-Phe-Gln-S8-Phe-BztA-Gln-NH2], the pIC50 in experiment [1] is 7.21; in experiment [2] it was less than 4.70.

For the compound `CC(=O)N1CCC[C@]12CC=CCCCC1(CCCC=CCCCCCC[C@@](C)(C(=O)N[C@@H](Cc3ccccc3)C(=O)N[C@@H](Cc3csc4ccccc34)C(=O)N[C@@H](CCC(N)=O)C(N)=O)NC(=O)[C@H](CCC(N)=O)NC(=O)[C@H](Cc3ccccc3)NC(=O)[C@H](C)NC(=O)[C@H](C)NC(=O)[C@H](CCC(=O)O)NC(=O)[C@H](CC(=O)O)NC1=O)NC(=O)[C@H](CCO)NC(=O)[C@H](CC(=O)O)NC2=O` (stereo partly drawn) [I-1545, Ac-PL3-Asp-Hse-B5-Asp-Glu-Ala-Ala-Phe-Gln-S8-Phe-BztA-Gln-NH2], the pIC50 in experiment [1] was 7.59; in experiment [2] it was less than 4.70.

In the case of `CC(=O)N1CCC[C@]12CC=CCCCC1(CCCC=CCCCCCC[C@@](C)(C(=O)N[C@@H](Cc3ccccc3)C(=O)N[C@@H](Cc3csc4ccccc34)C(=O)N[C@@H](CCC(N)=O)C(N)=O)NC(=O)[C@H](CC(C)C)NC(=O)[C@H](Cc3ccccc3)NC(=O)[C@H](C)NC(=O)[C@H](C)NC(=O)[C@H](CCC(=O)O)NC(=O)[C@H](CC(=O)O)NC1=O)NC(=O)[C@H](CCO)NC(=O)[C@H](CC(=O)O)NC2=O` (stereo partly drawn) [I-1546, Ac-PL3-Asp-Hse-B5-Asp-Glu-Ala-Ala-Phe-Leu-S8-Phe-BztA-Gln-NH2], the figures for the pIC50 in experiment [1] and in experiment [2] were 7.15 and 4.42, respectively.

For the compound `CC(=O)N1CCC[C@]12CC=CCCCC1(CCCC=CCCCCCC[C@@](C)(C(=O)N[C@@H](Cc3ccccc3)C(=O)N[C@@H](Cc3csc4ccccc34)C(=O)N[C@@H](CCC(N)=O)C(N)=O)NC(=O)[C@H](CCO)NC(=O)[C@H](Cc3ccccc3)NC(=O)[C@H](C)NC(=O)[C@H](C)NC(=O)[C@H](CCC(=O)O)NC(=O)[C@H](CC(=O)O)NC1=O)NC(=O)[C@H](CCO)NC(=O)[C@H](CC(=O)O)NC2=O` (stereo partly drawn) [I-1547, Ac-PL3-Asp-Hse-B5-Asp-Glu-Ala-Ala-Phe-Hse-S8-Phe-BztA-Gln-NH2], the pIC50 in experiment [1] was 7.17; in experiment [2], less than 4.70.

Regarding `CC(=O)N1CCC[C@]12CC=CCCCC1(CCCC=CCCCCCC[C@@](C)(C(=O)N[C@@H](Cc3ccccc3)C(=O)N[C@@H](Cc3csc4ccccc34)C(=O)N[C@@H](CCC(N)=O)C(N)=O)NC(=O)[C@H](CCO)NC(=O)[C@H](Cc3ccccc3)NC(=O)[C@H](C)NC(=O)[C@H](C)NC(=O)[C@H](CCC(=O)O)NC(=O)[C@H](CC(=O)O)NC1=O)NC(=O)[C@H](CCO)NC(=O)[C@H](CC(=O)O)NC2=O` (stereo partly drawn) [I-1548, Ac-PL3-Asp-Hse-B5-Asp-Glu-Ala-Ala-Phe-Hse-S8-Phe-BztA-Gln-NH2], the negative-log IC50 (pIC50) in experiment [1] was 7.55; in experiment [2], less than 4.70.

For `CC(=O)N1CCC[C@]12CC=CCCCC1(CCCC=CCCCCCC[C@@](C)(C(=O)N[C@@H](Cc3ccccc3)C(=O)N[C@@H](Cc3csc4ccccc34)C(=O)N[C@@H](CCC(N)=O)C(N)=O)NC(=O)[C@H](CCC(N)=O)NC(=O)[C@H](Cc3ccccc3)NC(=O)[C@H](C)NC(=O)[C@H](C)NC(=O)[C@H](CCC(=O)O)NC(=O)[C@H](CC(=O)O)NC1=O)NC(=O)[C@H](Cc1ccccc1)NC(=O)[C@H](CC(=O)O)NC2=O` (stereo partly drawn) [I-1549, Ac-PL3-Asp-Phe-B5-Asp-Glu-Ala-Ala-Phe-Gln-S8-Phe-BztA-Gln-NH2], the pIC50 was 7.89 in experiment [1] and 4.94 in experiment [2].

For `CC(=O)N1CCC[C@]12CC=CCCCC1(CCCC=CCCCCCC[C@@](C)(C(=O)N[C@@H](Cc3ccccc3)C(=O)N[C@@H](Cc3csc4ccccc34)C(=O)N[C@@H](CCC(N)=O)C(N)=O)NC(=O)[C@H](CC(C)C)NC(=O)[C@H](Cc3ccccc3)NC(=O)[C@H](C)NC(=O)[C@H](C)NC(=O)[C@H](CCC(=O)O)NC(=O)[C@H](CC(=O)O)NC1=O)NC(=O)[C@H](Cc1ccccc1)NC(=O)[C@H](CC(=O)O)NC2=O` (stereo partly drawn) [I-1550, Ac-PL3-Asp-Phe-B5-Asp-Glu-Ala-Ala-Phe-Leu-S8-Phe-BztA-Gln-NH2], the figures for the pIC50 in experiment [1] and in experiment [2] were 7.66 and 4.82, respectively.

In the case of `CC(=O)N1CCC[C@]12CC=CCCCC1(CCCC=CCCCCCC[C@@](C)(C(=O)N[C@@H](Cc3ccccc3)C(=O)N[C@@H](Cc3csc4ccccc34)C(=O)N[C@@H](CCC(N)=O)C(N)=O)NC(=O)[C@H](CCO)NC(=O)[C@H](Cc3ccccc3)NC(=O)[C@H](C)NC(=O)[C@H](C)NC(=O)[C@H](CCC(=O)O)NC(=O)[C@H](CC(=O)O)NC1=O)NC(=O)[C@H](Cc1ccccc1)NC(=O)[C@H](CC(=O)O)NC2=O` (stereo partly drawn) [I-1551, Ac-PL3-Asp-Phe-B5-Asp-Glu-Ala-Ala-Phe-Hse-S8-Phe-BztA-Gln-NH2], the negative-log IC50 (pIC50) in experiment [1] was 7.80; in experiment [2], 4.70.

In the case of `CC(=O)N1CCC[C@]12CC=CCCCC1(CCCC=CCCCCCC[C@@](C)(C(=O)N[C@@H](Cc3ccccc3)C(=O)N[C@@H](Cc3csc4ccccc34)C(=O)N[C@@H](CCC(N)=O)C(N)=O)NC(=O)[C@H](CCC(N)=O)NC(=O)[C@H](Cc3ccccc3)NC(=O)[C@H](C)NC(=O)[C@H](C)NC(=O)[C@H](CCC(=O)O)NC(=O)[C@H](CC(=O)O)NC1=O)NC(=O)[C@H](CCCCN)NC(=O)[C@H](CC(=O)O)NC2=O` (stereo partly drawn) [I-1552, Ac-PL3-Asp-Lys-B5-Asp-Glu-Ala-Ala-Phe-Gln-S8-Phe-BztA-Gln-NH2], the results for the pIC50 in experiment [1] and in experiment [2] were 7.25 and less than 4.70, respectively.

Take `CC(=O)N1CCC[C@]12CC=CCCCC1(CCCC=CCCCCCC[C@@](C)(C(=O)N[C@@H](Cc3ccccc3)C(=O)N[C@@H](Cc3csc4ccccc34)C(=O)N[C@@H](CCC(N)=O)C(N)=O)NC(=O)[C@H](CC(C)C)NC(=O)[C@H](Cc3ccccc3)NC(=O)[C@H](C)NC(=O)[C@H](C)NC(=O)[C@H](CCC(=O)O)NC(=O)[C@H](CC(=O)O)NC1=O)NC(=O)[C@H](CCCCN)NC(=O)[C@H](CC(=O)O)NC2=O` (stereo partly drawn) [I-1553, Ac-PL3-Asp-Lys-B5-Asp-Glu-Ala-Ala-Phe-Leu-S8-Phe-BztA-Gln-NH2]: the values for the pIC50 in experiment [1] and in experiment [2] were 6.88 and less than 4.70, respectively.

As for `CC(=O)N1CCC[C@]12CC=CCCCC1(CCCC=CCCCCCC[C@@](C)(C(=O)N[C@@H](Cc3ccccc3)C(=O)N[C@@H](Cc3csc4ccccc34)C(=O)N[C@@H](CCC(N)=O)C(N)=O)NC(=O)[C@H](CCO)NC(=O)[C@H](Cc3ccccc3)NC(=O)[C@H](C)NC(=O)[C@H](C)NC(=O)[C@H](CCC(=O)O)NC(=O)[C@H](CC(=O)O)NC1=O)NC(=O)[C@H](CCCCN)NC(=O)[C@H](CC(=O)O)NC2=O` (stereo partly drawn) [I-1554, Ac-PL3-Asp-Lys-B5-Asp-Glu-Ala-Ala-Phe-Hse-S8-Phe-BztA-Gln-NH2], the negative-log IC50 (pIC50) in experiment [1] is 7.20; in experiment [2], less than 4.70.

As for `CC(=O)N1CCC[C@]12CC=CCCCC1(CCCC=CCCCOC(=O)N3CC[C@@](C(=O)N[C@@H](Cc4ccsc4)C(=O)N[C@@H](Cc4csc5ccccc45)C(=O)N[C@@H](CCC(N)=O)C(N)=O)(C3)NC(=O)[C@H](CC(N)=O)NC(=O)[C@H](Cc3ccccc3)NC(=O)[C@H](C)NC(=O)[C@H](C)NC(=O)[C@H](CC(N)=O)NC(=O)[C@H](CC(N)=O)NC1=O)NC(=O)[C@H](CC(C)(C)C)NC(=O)[C@H](CC(=O)O)NC2=O` (stereo partly drawn) [I-1555, Ac-PL3-Asp-Npg-B5-Asn-Asn-Ala-Ala-Phe-Asn-PyrS2-3Thi-BztA-Gln-NH2], the pIC50 in experiment [1] was 6.74; in experiment [2], 4.53.
